pIC50: −log10 of the molar value.
Biological target: BRD4 (Homo sapiens, UniProt O60885)
Assay: Time resolved fluorescence resonance energy transfer (TR-FRET) binding assay, bromodomain BRD4
Conditions: one of the FRET assays described; read-out: FRET BRD4 IC50

| SMILES | pIC50 |
| --- | --- |
| COC(=O)c1cnc(OC)c2c3ncc(-c4c(C)noc4C)cc3n([C@H](c3ccccc3)C3CCOCC3)c12 [Example 140, Methyl 5-(dimethyl-1,2-oxazol-4-yl)-13-methoxy-8-[(S)-oxan-4-yl(phenyl)methyl]-3,8,12-triazatricyclo[7.4.0.0^2,^7]trideca-1(13),2(7),3,5,9,11-hexaene-10-carboxylate] | > 9.00 |
| COc1ncc(C(C)(C)O)c2c1c1ncc(-c3c(C)noc3C)cc1n2[C@H](c1ccccc1)C1CCOCC1 [Example 141, 2-[5-(Dimethyl-1,2-oxazol-4-yl)-13-methoxy-8-[(S)-oxan-4-yl(phenyl)methyl]-3,8,12-triazatricyclo[7.4.0.0^2,^7]trideca-1(9),2,4,6,10,12-hexaen-10-yl]propan-2-ol] | > 8.00 |
| COc1ncc(C(C)(C)O)c2c1c1ncc(-c3c(C)nnn3C)cc1n2[C@H](c1ccccc1)C1CCOCC1 [Example 142, 2-[5-(Dimethyl-1H-1,2,3-triazol-5-yl)-13-methoxy-8-[(S)-oxan-4-yl(phenyl)methyl]-3,8,12-triazatricyclo[7.4.0.0^2,^7]trideca-1(9),2,4,6,10,12-hexaen-10-yl]propan-2-ol] | > 8.00 |
| Cc1nnn(C)c1-c1cnc2c3cnc(C#N)nc3n([C@H](c3ccccc3)C3CCOCC3)c2c1 [Example 143, 5-(Dimethyl-1H-1,2,3-triazol-5-yl)-8-[(S)-oxan-4-yl(phenyl)methyl]-3,8,10,12-tetraazatricyclo[7.4.0.0^2,^7]trideca-1(9),2(7),3,5,10,12-hexaene-11-carbonitrile] | > 5.82 |
| Cc1noc(C)c1-c1cnc2c3ccc(S(C)(=O)=O)nc3n([C@H](c3ccccc3)C3CCOCC3)c2c1 [Example 144, 5-(Dimethyl-1,2-oxazol-4-yl)-11-methanesulfonyl-8-[(S)-oxan-4-yl(phenyl)methyl]-3,8,10-triazatricyclo[7.4.0.0^2,^7]trideca-1(13),2(7),3,5,9,11-hexaene] | > 8.00 |
| Cc1nnn(C)c1-c1cnc2c3ccc(S(C)(=O)=O)nc3n([C@H](c3ccccc3)C3CCOCC3)c2c1 [Example 145, 5-(Dimethyl-1H-1,2,3-triazol-5-yl)-11-methanesulfonyl-8-[(S)-oxan-4-yl(phenyl)methyl]-3,8,10-triazatricyclo[7.4.0.0^2,^7]trideca-1(13),2(7),3,5,9,11-hexaene] | > 8.00 |
| Cc1cnn(C)c1-c1cnc2c3ccc(S(C)(=O)=O)nc3n([C@H](c3ccccc3)C3CCOCC3)c2c1 [Example 146, 5-(1,4-Dimethyl-1H-pyrazol-5-yl)-11-methanesulfonyl-8-[(S)-oxan-4-yl(phenyl)methyl]-3,8,10-triazatricyclo[7.4.0.0^2,^7]trideca-1(13),2(7),3,5,9,11-hexaene] | > 5.82 |
| Cc1noc(C)c1-c1ccc2c3ncc(-c4c(C)nnn4C)cc3n([C@H](c3ccccc3)C3CCOCC3)c2n1 [Example 147, 11-(Dimethyl-1,2-oxazol-4-yl)-5-(dimethyl-1H-1,2,3-triazol-5-yl)-8-[(S)-oxan-4-yl(phenyl)methyl]-3,8,10-triazatricyclo[7.4.0.0^2,^7]trideca-1(13),2(7),3,5,9,11-hexaene] | > 8.00 |
| Cc1cnn(C)c1-c1ccc2c3ncc(-c4c(C)nnn4C)cc3n([C@H](c3ccccc3)C3CCOCC3)c2n1 [Example 148, 5-(Dimethyl-1H-1,2,3-triazol-5-yl)-11-(1,4-dimethyl-1H-pyrazol-5-yl)-8-[(S)-oxan-4-yl(phenyl)methyl]-3,8,10-triazatricyclo[7.4.0.0^2,^7]trideca-1(13),2(7),3,5,9,11-hexaene] | > 8.00 |
| Cc1nnn(C)c1-c1cnc2c3ccc(-c4cnn(C(C)C)c4)nc3n([C@H](c3ccccc3)C3CCOCC3)c2c1 [Example 149, 5-(Dimethyl-1H-1,2,3-triazol-5-yl)-8-[(S)-oxan-4-yl(phenyl)methyl]-11-[1-(propan-2-yl)-1H-pyrazol-4-yl]-3,8,10-triazatricyclo[7.4.0.0^2,^7]trideca-1(13),2(7),3,5,9,11-hexaene] | > 8.00 |
| Cc1nnn(C)c1-c1cnc2c3ccc(-c4cnn(C5CC5)c4)nc3n([C@H](c3ccccc3)C3CCOCC3)c2c1 [Example 150, 11-(1-Cyclopropyl-1H-pyrazol-4-yl)-5-(dimethyl-1H-1,2,3-triazol-5-yl)-8-[(S)-oxan-4-yl(phenyl)methyl]-3,8,10-triazatricyclo[7.4.0.0^2,^7]trideca-1(13),2(7),3,5,9,11-hexaene] | > 9.00 |
| [2H]C([2H])([2H])c1nnn(C)c1-c1cnc2c3ccc(N4CCN(C5CC5)CC4)nc3n([C@H](c3ccccc3)C3CCOCC3)c2c1 [Example 151, 11-(4-Cyclopropylpiperazin-1-yl)-5-[4-(^2H3)methyl-1-methyl-1H-1,2,3-triazol-5-yl]-8-[(S)-oxan-4-yl(phenyl)methyl]-3,8,10-triazatricyclo[7.4.0.0^2,^7]trideca-1(9),2(7),3,5,10,12-hexaene] | > 8.00 |
| [2H]C([2H])([2H])c1nnn(C)c1-c1cnc2c3ccc(N4CCN(C(C)(C)C)CC4)nc3n([C@H](c3ccccc3)C3CCOCC3)c2c1 [Example 152, 11-(4-tert-Butylpiperazin-1-yl)-5-[4-(^2H3)methyl-1-methyl-1H-1,2,3-triazol-5-yl]-8-[(S)-oxan-4-yl(phenyl)methyl]-3,8,10-triazatricyclo[7.4.0.0^2,^7]trideca-1(9),2(7),3,5,10,12-hexaene] | > 8.00 |
| [2H]C([2H])([2H])c1nnn(C)c1-c1cnc2c3ccc(N4CCN(C(C)C)CC4)nc3n([C@H](c3ccccc3)C3CCOCC3)c2c1 [Example 153, 5-[4-(^2H3)Methyl-1-methyl-1H-1,2,3-triazol-5-yl]-8-[(S)-oxan-4-yl(phenyl)methyl]-11-[4-(propan-2-yl)piperazin-1-yl]-3,8,10-triazatricyclo[7.4.0.0^2,^7]trideca-1(9),2(7),3,5,10,12-hexaene] | > 8.00 |
| [2H]C([2H])([2H])c1nnn(C)c1-c1cnc2c3ccc(N4CCN(CC(F)(F)F)CC4)nc3n([C@H](c3ccccc3)C3CCOCC3)c2c1 [Example 154, 5-[4-(^2H3)Methyl-1-methyl-1H-1,2,3-triazol-5-yl]-8-[(S)-oxan-4-yl(phenyl)methyl]-11-[4-(2,2,2-trifluoroethyl)piperazin-1-yl]-3,8,10-triazatricyclo[7.4.0.0^2,^7]trideca-1(9),2(7),3,5,10,12-hexaene] | > 8.00 |
| Cc1nnn(C)c1-c1cnc2c3cnc(-c4c(C)nnn4C)nc3n([C@H](c3ccccc3)C3CCOCC3)c2c1 [Example 155, 5,11-Bis(dimethyl-1H-1,2,3-triazol-5-yl)-8-[(S)-oxan-4-yl(phenyl)methyl]-3,8,10,12-tetraazatricyclo[7.4.0.0^2,^7]trideca-1(9),2(7),3,5,10,12-hexaene] | > 8.00 |
| [2H]C([2H])([2H])N1CCN(c2ncc3c4ncc(-c5c(C)nnn5C)cc4n([C@H](c4ccccc4)C4CCOCC4)c3n2)CC1 [Example 156, 5-(Dimethyl-1H-1,2,3-triazol-5-yl)-11-[4-(^2H3)methylpiperazin-1-yl]-8-[(S)-oxan-4-yl(phenyl)methyl]-3,8,10,12-tetraazatricyclo[7.4.0.0^2,^7]trideca-1(9),2(7),3,5,10,12-hexaene] | > 8.00 |
| Cc1nnn(C)c1-c1cnc2c3cnc(N4CCN(C5CC5)CC4)nc3n([C@H](c3ccccc3)C3CCOCC3)c2c1 [Example 157, 11-(4-Cyclopropylpiperazin-1-yl)-5-(dimethyl-1H-1,2,3-triazol-5-yl)-8-[(S)-oxan-4-yl(phenyl)methyl]-3,8,10,12-tetraazatricyclo[7.4.0.0^2,^7]trideca-1(9),2(7),3,5,10,12-hexaene] | > 8.00 |
| COc1nnn(C)c1-c1cnc2c3cnc(N4C[C@@H](C)S(=O)(=O)[C@H](C)C4)nc3n([C@H](c3ccccc3)C3CCOCC3)c2c1 [Example 158, (2R,6R)-4-[5-(4-Methoxy-1-methyl-1H-1,2,3-triazol-5-yl)-8-[(S)-oxan-4-yl(phenyl)methyl]-3,8,10,12-tetraazatricyclo[7.4.0.0^2,^7]trideca-1(9),2(7),3,5,10,12-hexaen-11-yl]-2,6-dimethyl-1λ^6,4-thiomorpholine-1,1-dione] | > 8.00 |
| [2H]C([2H])([2H])c1nnn(C)c1-c1cnc2c3cnc(C(C)(C)O)cc3n([C@H](c3ccc(F)cc3)C3CCOCC3)c2c1 [Example 159, 2-{8-[(S)-(4-Fluorophenyl)(oxan-4-yl)methyl]-5-[4-(^2H3)methyl-1-methyl-1H-1,2,3-triazol-5-yl]-3,8,12-triazatricyclo[7.4.0.0^2,^7]trideca-1(13),2(7),3,5,9,11-hexaen-11-yl}propan-2-ol] | > 5.82 |
| [2H]C([2H])([2H])c1nnn(C)c1-c1cnc2c3cnc(-c4c(C([2H])([2H])[2H])nnn4C)cc3n([C@H](c3ccc(F)cc3)C3CCOCC3)c2c1 [Example 160, 8-[(S)-(4-Fluorophenyl)(oxan-4-yl)methyl]-5,11-bis[4-(^2H3)methyl-1-methyl-1H-1,2,3-triazol-5-yl]-3,8,12-triazatricyclo[7.4.0.0^2,^7]trideca-1(13),2(7),3,5,9,11-hexaene] | > 8.00 |
| C=C(C)c1ccc2c3ncc(-c4c(C)nnn4C)cc3n([C@H](c3ccccc3)C3CCOCC3)c2n1 [Example 161, 5-(Dimethyl-1H-1,2,3-triazol-5-yl)-8-[(S)-oxan-4-yl(phenyl)methyl]-11-(prop-1-en-2-yl)-3,8,10-triazatricyclo[7.4.0.0^2,^7]trideca-1(9),2(7),3,5,10,12-hexaene] | > 8.00 |
| CC(=O)c1ccc(-c2ccc3c4ncc(-c5c(C)nnn5C)cc4n([C@H](c4ccccc4)C4CCOCC4)c3n2)s1 [Example 162, 1-{5-[5-(Dimethyl-1H-1,2,3-triazol-5-yl)-8-[(S)-oxan-4-yl(phenyl)methyl]-3,8,10-triazatricyclo[7.4.0.0^2,^7]trideca-1(9),2(7),3,5,10,12-hexaen-11-yl]thiophen-2-yl}ethan-1-one] | > 8.00 |
| Cc1nnn(C)c1-c1cnc2c3ccc(-c4c(C)nnn4C)nc3n([C@H](c3ccccc3)C3CCOCC3)c2c1 [Example 163, 5,11-Bis(dimethyl-1H-1,2,3-triazol-5-yl)-8-[(S)-oxan-4-yl(phenyl)methyl]-3,8,10-triazatricyclo[7.4.0.0^2,^7]trideca-1(9),2(7),3,5,10,12-hexaene] | > 9.00 |

— patent US9725449B2, “Tricyclic compounds as anticancer agents” (BRISTOL-MYERS SQUIBB COMPANY, priority 2015, dated 2017)
